Assay results as given in the supplement of paper PMC11061612.

Key:
Assay in all cases: combination Emax (second highest fraction inhibited in the dose matrix, 72 h); higher = more inhibition; extreme values may be limits of the assay
[1] = test system: PFSK-1 (Other Solid Carcinomas)
In short: (§1)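 Cell lines in DMEM/F12 or RPMI with 10% FBS were plated in 1536-well plates, held 24 hours at 37°C, 5% CO2, then given two-drug dose matrices for 72 hours (DMSO typically 0.2%). Viability was read by CellTiter-Glo 2.0 luminescence and scaled as inhibition from 0 (vehicle wells) to 1 (blank wells). Combination Emax is the second-highest inhibition in the matrix; Bliss excess is observed combination effect minus expected EA + EB − EA·EB, EA and EB being single-agent effects.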

[2] = test system: KYSE-150 (Esophageal Squamous Cell Carcinoma)
In short: as §1

[3] = test system: KYSE-50 (Esophageal Squamous Cell Carcinoma)
In short: as §1

[4] = test system: EMC-BAC-2 (Non-Small Cell Lung Carcinoma)
In short: as §1

[5] = test system: NCI-H513 (Other Solid Carcinomas)
In short: as §1

[6] = test system: GOTO (Neuroblastoma)
In short: as §1

[7] = test system: ASH-3 (Thyroid Gland Carcinoma)
In short: as §1

[8] = test system: LOU-NH91 (Squamous Cell Lung Carcinoma)
In short: as §1

[9] = test system: PF-382 (T-Lymphoblastic Leukemia)
In short: as §1

[10] = test system: KINGS-1 (Low Grade Glioma)
In short: as §1

[11] = test system: OVISE (Ovarian Carcinoma)
In short: as §1

[12] = test system: GI-1 (Glioblastoma)
In short: as §1

[13] = test system: KP-2 (Pancreatic Carcinoma)
In short: as §1

[14] = test system: NCI-H2347 (Lung Adenocarcinoma)
In short: as §1

[15] = test system: NH-12 (Neuroblastoma)
In short: as §1

[16] = test system: LC4-1 (B-Lymphoblastic Leukemia)
In short: as §1

[17] = test system: OCUM-1 (Gastric Carcinoma)
In short: as §1

[18] = test system: DG-75 (Burkitt's Lymphoma)
In short: as §1

[19] = test system: BV-173 (Chronic Myelogenous Leukemia)
In short: as §1

[20] = test system: VMRC-LCD (Lung Adenocarcinoma)
In short: as §1

Compound	combination Emax [1]	combination Emax [2]	combination Emax [3]	combination Emax [4]	combination Emax [5]	combination Emax [6]	combination Emax [7]	combination Emax [8]	combination Emax [9]	combination Emax [10]	combination Emax [11]	combination Emax [12]	combination Emax [13]	combination Emax [14]	combination Emax [15]	combination Emax [16]	combination Emax [17]	combination Emax [18]	combination Emax [19]	combination Emax [20]
C=CCn1c(=O)c2cnc(Nc3ccc(N4CCN(C)CC4)cc3)nc2n1-c1cccc(C(C)(C)O)n1 [AZD1775] + C1CN(CCC1(C(=O)N[C@@H](CCO)C2=CC=C(C=C2)Cl)N)C3=NC=NC4=C3C=CN4 [Capivasertib] (first compound max 3 µM, partner max 3 µM)	0.893	0.727	0.771	0.592	0.494	0.712	0.519	0.727	0.952	0.473	0.651	0.907	0.498	0.477	0.852	0.884	0.707	0.922	–	–
COc1nnc2ccc(N3CCC(c4ccc(OCCN5CCN(C)C(=O)[C@H]5C)cc4)CC3)nn12 [AZD5153] + CN(CC[C@H](CSC1=CC=CC=C1)NC2=C(C=C(C=C2)S(=O)(=O)NC(=O)C3=CC=C(C=C3)N4CCC(CC4)[C@H](C5=CC=CC=C5C6=CC=C(C=C6)Cl)O)S(=O)(=O)C(F)(F)F)CCO [AZD4320] (first compound max 1 µM, 7x7, partner max 1 µM)	0.558	0.607	0.732	0.661	0.409	0.858	0.958	0.781	1	–	0.9	–	0.945	0.518	0.91	–	–	0.881	0.957	–
Cc1c2c(nn1C)CSCc1cc(n(C)n1)CSc1cc(c3ccccc3c1)OCCCc1c(C(=O)O)n(C)c3c-2c(Cl)ccc13 [AZD5991] + C1CN(CCC1(C(=O)N[C@@H](CCO)C2=CC=C(C=C2)Cl)N)C3=NC=NC4=C3C=CN4 [Capivasertib] (first compound max 1 µM, 7x7, partner max 3 µM)	1	0.397	0.226	0.718	–	0.725	0.267	0.427	0.477	0.242	0.354	0.949	0.18	0.134	0.32	0.989	0.219	0.257	0.927	0.129
Cc1c2c(nn1C)CSCc1cc(n(C)n1)CSc1cc(c3ccccc3c1)OCCCc1c(C(=O)O)n(C)c3c-2c(Cl)ccc13 [AZD5991] + C=CCn1c(=O)c2cnc(Nc3ccc(N4CCN(C)CC4)cc3)nc2n1-c1cccc(C(C)(C)O)n1 [AZD1775] (first compound max 1 µM, partner max 1 µM)	1	0.634	0.618	0.842	0.532	0.834	0.339	0.556	0.961	0.334	0.633	0.958	–	0.357	0.918	0.986	0.38	0.92	0.942	0.506
COc1cccc2c1C(=O)c1c(O)c3c(c(O)c1C2=O)C[C@@](O)(C(=O)CO)C[C@@H]3O[C@H]1C[C@H](N)[C@H](O)[C@H](C)O1 [Doxorubicin] + Cc1cc2ncnn2cc1Nc1ncc2c(n1)n(C1CCOCC1)c(=O)n2C [AZD7648] (first compound max 1 µM, 7x7, partner max 10 µM)	–	0.958	0.678	0.829	0.527	0.816	0.912	0.782	0.989	0.664	0.554	0.929	0.513	0.253	0.944	1	0.596	0.882	0.994	0.612
CS(=O)(=O)CCNCc1ccc(-c2ccc3ncnc(Nc4ccc(OCc5cccc(F)c5)c(Cl)c4)c3c2)o1 [Lapatinib] + NC1(c2ccc(-c3nc4ccn5c(=O)[nH]nc5c4cc3-c3ccccc3)cc2)CCC1 [MK-2206] (first compound max 10 µM, 7x7, partner max 10 µM)	0.942	0.954	–	–	0.386	–	0.956	–	0.974	0.83	0.928	0.899	–	0.188	–	0.954	0.843	–	–	0.205
COc1cccc(OCCCN)c1-c1cc(Nc2cnc(C#N)cn2)n[nH]1 [Prexasertib] + C=CCn1c(=O)c2cnc(Nc3ccc(N4CCN(C)CC4)cc3)nc2n1-c1cccc(C(C)(C)O)n1 [AZD1775] (first compound max 1 µM, partner max 1 µM)	–	0.866	0.852	0.608	0.505	0.905	0.848	0.716	0.942	0.638	0.763	0.994	0.613	0.481	0.944	0.983	0.808	0.995	0.994	0.772
COc1cccc(OCCCN)c1-c1cc(Nc2cnc(C#N)cn2)n[nH]1 [Prexasertib] + CN(C)CCCOc1ccc(-c2ccc3ncc4c(c3c2)n(C2CCOCC2)c(=O)n4C)cn1 [AZD0156] (first compound max 1 µM, 7x7, partner max 1 µM)	–	0.365	0.844	0.591	0.343	0.908	0.565	0.445	0.9	0.528	0.796	0.966	0.441	0.42	0.918	0.978	0.818	0.964	0.97	0.751
COc1cccc(OCCCN)c1-c1cc(Nc2cnc(C#N)cn2)n[nH]1 [Prexasertib] + C[C@@H]1COCCN1C2=NC(=NC(=C2)C3(CC3)[S@](=N)(=O)C)C4=C5C=CNC5=NC=C4 [AZD6738] (first compound max 1 µM, 7x7, partner max 10 µM)	–	0.621	0.818	0.497	0.363	0.913	0.705	0.461	0.917	0.506	0.716	0.962	0.398	0.458	0.925	0.984	0.813	0.942	0.964	0.753
COc1cccc(OCCCN)c1-c1cc(Nc2cnc(C#N)cn2)n[nH]1 [Prexasertib] + Cc1cc2ncnn2cc1Nc1ncc2c(n1)n(C1CCOCC1)c(=O)n2C [AZD7648] (first compound max 1 µM, 7x7, partner max 10 µM)	–	0.513	0.818	0.538	0.36	0.908	0.648	0.44	0.934	0.607	0.716	0.987	0.57	0.39	0.908	0.97	0.803	0.923	0.964	0.749
COc1cccc(OCCCN)c1-c1cc(Nc2cnc(C#N)cn2)n[nH]1 [Prexasertib] + O=C(c1cc(Cc2n[nH]c(=O)c3ccccc23)ccc1F)N1CCN(C(=O)C2CC2)CC1 [Olaparib] (first compound max 1 µM, 7x7, partner max 10 µM)	–	0.61	0.75	0.44	0.295	0.858	0.694	0.573	0.897	0.405	0.689	0.933	0.289	0.378	0.893	0.982	0.7	0.827	0.994	0.679
COc1cc2c(cc1OCCCCCOc1cc3c(cc1OC)C(=O)N1C=C(C)C[C@H]1C=N3)N=C[C@@H]1CC(C)=CN1C2=O [SG3199] + O=C(c1cc(Cc2n[nH]c(=O)c3ccccc23)ccc1F)N1CCN(C(=O)C2CC2)CC1 [Olaparib] (first compound max 0.001 µM, 7x7, partner max 10 µM)	–	0.183	0.0539	0.169	0.107	0.522	0.0979	0.175	0.259	0.147	0.0965	0.175	0.13	0.181	0.319	0.528	0.122	0.201	0.932	0.0613
CCc1c2c(nc3ccc(O)cc13)-c1cc3c(c(=O)n1C2)COC(=O)[C@]3(O)CC [SN-38] + CN(C)CCCOc1ccc(-c2ccc3ncc4c(c3c2)n(C2CCOCC2)c(=O)n4C)cn1 [AZD0156] (first compound max 0.3 µM, 7x7, partner max 1 µM)	–	0.732	0.171	0.594	0.544	0.861	0.844	0.857	0.994	0.243	0.181	0.974	0.404	0.564	0.838	0.932	0.635	0.856	0.981	0.0996
